From patent publication US11548870B2, “Compounds useful as inhibitors of helios protein” (Bristol-Myers Squibb Company, priority 2019, dated 2023)

Columns and labels:
Helios = biological target: T1, Helios (Homo sapiens, UniProt Q96SW2+Q9UKS7); experiment: Helios Cellular Degradation Assay (flow cytometry, Helios-PE antibody staining, 72 h); format: cell-based; conditions: Jurkat cells, 72 h incubation, flow cytometry; for Dmax: Jurkat, read-out: Helios Dmax
T1 construct: fluorescently labelled antibodies against Helios and Ikaros; endogenous in cells; host or cells: Jurkat cells
T1 sequence (Q9UKS7 whole entry): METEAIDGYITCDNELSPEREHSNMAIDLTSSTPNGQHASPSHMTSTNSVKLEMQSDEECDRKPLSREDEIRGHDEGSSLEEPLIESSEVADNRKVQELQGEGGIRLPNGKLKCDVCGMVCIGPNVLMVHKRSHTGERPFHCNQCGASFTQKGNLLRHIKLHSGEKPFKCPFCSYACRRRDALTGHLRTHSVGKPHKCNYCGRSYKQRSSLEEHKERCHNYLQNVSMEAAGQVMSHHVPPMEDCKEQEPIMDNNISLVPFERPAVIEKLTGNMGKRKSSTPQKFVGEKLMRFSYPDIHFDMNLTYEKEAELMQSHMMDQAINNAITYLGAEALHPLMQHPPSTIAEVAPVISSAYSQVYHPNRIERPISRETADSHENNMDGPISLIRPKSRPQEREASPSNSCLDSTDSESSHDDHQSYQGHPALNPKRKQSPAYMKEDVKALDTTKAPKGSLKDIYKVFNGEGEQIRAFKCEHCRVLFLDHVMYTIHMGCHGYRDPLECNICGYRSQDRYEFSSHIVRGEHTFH
T1 sequence (Q96SW2 whole entry): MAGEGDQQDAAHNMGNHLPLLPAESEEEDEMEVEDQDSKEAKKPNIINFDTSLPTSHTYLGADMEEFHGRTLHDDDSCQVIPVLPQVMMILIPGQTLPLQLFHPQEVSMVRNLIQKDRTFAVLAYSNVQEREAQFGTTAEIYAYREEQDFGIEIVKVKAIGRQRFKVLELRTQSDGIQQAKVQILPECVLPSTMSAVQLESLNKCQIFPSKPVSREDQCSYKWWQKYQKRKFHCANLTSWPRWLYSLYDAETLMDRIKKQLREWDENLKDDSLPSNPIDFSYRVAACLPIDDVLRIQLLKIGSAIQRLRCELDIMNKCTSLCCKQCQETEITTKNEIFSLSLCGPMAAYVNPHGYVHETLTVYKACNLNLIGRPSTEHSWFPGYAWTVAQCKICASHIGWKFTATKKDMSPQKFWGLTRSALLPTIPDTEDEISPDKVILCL
T1 sequence (Q16531 whole entry partner): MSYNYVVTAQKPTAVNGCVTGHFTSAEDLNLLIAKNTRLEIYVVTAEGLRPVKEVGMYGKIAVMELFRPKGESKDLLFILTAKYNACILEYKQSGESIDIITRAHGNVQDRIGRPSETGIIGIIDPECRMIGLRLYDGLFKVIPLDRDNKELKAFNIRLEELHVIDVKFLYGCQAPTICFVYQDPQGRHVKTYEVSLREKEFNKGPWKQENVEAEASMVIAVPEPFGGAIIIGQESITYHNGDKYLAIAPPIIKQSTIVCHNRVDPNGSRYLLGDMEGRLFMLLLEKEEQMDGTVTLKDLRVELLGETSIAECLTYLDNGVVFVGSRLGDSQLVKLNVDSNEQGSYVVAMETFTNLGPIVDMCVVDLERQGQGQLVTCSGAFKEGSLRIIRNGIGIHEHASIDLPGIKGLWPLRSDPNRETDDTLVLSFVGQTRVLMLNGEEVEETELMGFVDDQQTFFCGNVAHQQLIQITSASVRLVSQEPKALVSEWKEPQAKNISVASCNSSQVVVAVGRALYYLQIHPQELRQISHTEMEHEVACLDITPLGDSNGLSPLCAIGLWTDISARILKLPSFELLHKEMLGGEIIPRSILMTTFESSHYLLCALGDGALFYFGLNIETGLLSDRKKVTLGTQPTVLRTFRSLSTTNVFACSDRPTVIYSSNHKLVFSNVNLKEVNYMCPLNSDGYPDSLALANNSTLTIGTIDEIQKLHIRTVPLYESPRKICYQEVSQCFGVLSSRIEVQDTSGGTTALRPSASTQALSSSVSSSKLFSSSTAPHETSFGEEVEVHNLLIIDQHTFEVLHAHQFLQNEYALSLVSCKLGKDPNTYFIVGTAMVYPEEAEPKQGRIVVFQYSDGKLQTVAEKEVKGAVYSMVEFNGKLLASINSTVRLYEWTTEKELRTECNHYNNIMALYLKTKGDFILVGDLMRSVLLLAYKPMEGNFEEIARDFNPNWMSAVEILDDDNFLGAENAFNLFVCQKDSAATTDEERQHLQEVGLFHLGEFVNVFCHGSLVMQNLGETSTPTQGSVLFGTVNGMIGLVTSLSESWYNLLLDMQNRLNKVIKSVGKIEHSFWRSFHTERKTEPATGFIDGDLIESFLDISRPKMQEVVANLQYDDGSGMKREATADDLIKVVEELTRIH
Summary of the method: (§1)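 Flow cytometry of fixed, permeabilized Jurkat cells stained with anti-Helios-PE and anti-Ikaros-Alexa488 (1 h, room temperature) measured remaining protein. Treatment lasted 72 h at 37 °C, 5% CO2, at 80,000 cells/well in RPMI with 10% FBS.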

Ikaros = biological target: T2, Ikaros (Homo sapiens, UniProt Q13422); experiment: Helios Cellular Degradation Assay, Ikaros readout (flow cytometry, Ikaros-Alexa488 antibody staining, 72 h); format: cell-based; conditions: Jurkat cells, 72 h incubation, flow cytometry; for Dmax: Jurkat, read-out: Ikaros Dmax
T2 construct: fluorescently labelled antibodies against Helios and Ikaros; endogenous in cells; host or cells: Jurkat cells
T2 sequence (Q96SW2 whole entry partner): as the sequence (Q96SW2 whole entry) above
T2 sequence (Q16531 whole entry partner): as the sequence (Q16531 whole entry partner) above
T2 sequence (Q13422 whole entry): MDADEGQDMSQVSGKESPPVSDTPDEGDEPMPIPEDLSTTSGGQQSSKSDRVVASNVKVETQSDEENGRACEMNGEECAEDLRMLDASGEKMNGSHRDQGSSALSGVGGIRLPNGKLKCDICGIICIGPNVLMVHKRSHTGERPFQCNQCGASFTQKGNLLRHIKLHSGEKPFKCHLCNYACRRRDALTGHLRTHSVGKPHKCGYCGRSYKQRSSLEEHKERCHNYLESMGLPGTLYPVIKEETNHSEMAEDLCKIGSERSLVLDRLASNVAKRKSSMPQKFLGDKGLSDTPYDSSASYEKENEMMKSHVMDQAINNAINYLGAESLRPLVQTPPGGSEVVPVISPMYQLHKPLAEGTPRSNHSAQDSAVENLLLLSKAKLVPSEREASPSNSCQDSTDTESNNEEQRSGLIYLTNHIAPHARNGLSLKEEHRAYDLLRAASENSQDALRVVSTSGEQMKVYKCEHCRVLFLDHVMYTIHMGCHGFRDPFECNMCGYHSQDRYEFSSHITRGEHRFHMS
Summary of the method: as §1

| Structure (SMILES) | DC50 (Helios) [nM] | Dmax (Helios) [%] | DC50 (Ikaros) [nM] | Dmax (Ikaros) [%] |
| --- | --- | --- | --- | --- |
| O=C1CCC(N2Cc3cc(-c4cc(CN5CCS(=O)(=O)CC5)ccn4)ccc3C2=O)C(=O)N1 (stereo not shown) [Example 167, 4-({2-[2-(2,6-Dioxopiperidin-3-yl)-1-oxo-2,3-dihydro-1H-isoindol-5-yl]pyridin-4-yl}methyl)-1λ6-thiomorpholine-1,1-dione] | > 10000 | 41 | > 10000 | 12 |
| COc1ccc(CN(C)Cc2ccnc(-c3ccc4c(c3)CN(C3CCC(=O)NC3=O)C4=O)c2)cn1 (stereo not shown) [Example 168, 3-{5-[4-({[(6-Methoxypyridin-3-yl)methyl](methyl)amino}methyl)pyridin-2-yl]-1-oxo-2,3-dihydro-1H-isoindol-2-yl}piperidine-2,6-dione] | 309 | 77 | > 10000 | 20 |
| CN(Cc1ccnc(-c2ccc3c(c2)CN(C2CCC(=O)NC2=O)C3=O)c1)Cc1cccc2[nH]ncc12 (stereo not shown) [Example 169, 3-(5-(4-((((1H-indazol-4-yl)methyl)(methyl)amino)methyl)pyridin-2-yl)-1-oxoisoindolin-2-yl)piperidine-2,6-dione] | 195 | 79 | > 10000 | 16 |
| CN(CCc1ccccc1)Cc1ccnc(-c2ccc3c(c2)CN(C2CCC(=O)NC2=O)C3=O)c1 (stereo not shown) [Example 171, 3-(5-(4-((methyl(phenethyl)amino)methyl)pyridin-2-yl)-1-oxoisoindolin-2-yl)piperidine-2,6-dione] | 317 | 80 | > 10000 | 4 |
| CN(Cc1ccc(-n2ccnc2)cc1)Cc1ccnc(-c2ccc3c(c2)CN(C2CCC(=O)NC2=O)C3=O)c1 (stereo not shown) [Example 177, 3-(5-(4-(((4-(1H-imidazol-1-yl)benzyl)(methyl)amino)methyl)pyridin-2-yl)-1-oxoisoindolin-2-yl)piperidine-2,6-dione] | > 10000 | 43 | > 10000 | 12 |
| CN(Cc1ccnc(-c2ccc3c(c2)CN(C2CCC(=O)NC2=O)C3=O)c1)Cc1cnc2ccccc2n1 (stereo not shown) [Example 183, 3-(5-(4-((methyl (quinoxalin-2-ylmethyl)amino)methyl)pyridin-2-yl)-1-oxoisoindolin-2-yl)piperidine-2,6-dione] | 167 | 76 | > 10000 | 10 |
| O=C1CCC(N2Cc3cc(-c4cc(CN5CC(c6ccccc6)C5)c(Cl)cn4)ccc3C2=O)C(=O)N1 (stereo not shown) [Example 186, 3-(5-(5-chloro-4-((3-phenylazetidin-1-yl)methyl)pyridin-2-yl)-1-oxoisoindolin-2-yl)piperidine-2,6-dione] | 230 | 62 | > 10000 | 8 |
| O=C1CCC(N2Cc3cc(-c4cc(CN5CCC5c5ccccc5)c(Cl)cn4)ccc3C2=O)C(=O)N1 (stereo not shown) [Example 187, 3-(5-(5-chloro-4-((2-phenylazetidin-1-yl)methyl)pyridin-2-yl)-1-oxoisoindolin-2-yl)piperidine-2,6-dione] | 24 | 84 | > 10000 | 6 |
| O=C1CCC(N2Cc3cc(-c4cc(CN5CC(c6ccccc6)C5)c(F)cn4)ccc3C2=O)C(=O)N1 (stereo not shown) [Example 188, 3-(5-(5-fluoro-4-((3-phenylazetidin-1-yl)methyl)pyridin-2-yl)-1-oxoisoindolin-2-yl) piperidine-2,6-dione] | 27 | 76 | – | 16 |
| O=C1CCC(N2Cc3cc(-c4cc(CN5CCC5c5ccccc5)c(F)cn4)ccc3C2=O)C(=O)N1 (stereo not shown) [Example 189, 3-(5-(5-fluoro-4-((2-phenylazetidin-1-yl)methyl)pyridin-2-yl)-1-oxoisoindolin-2-yl)piperidine-2,6-dione] | 11 | 80 | > 10000 | 16 |
| O=C1CCC(N2Cc3cc(-c4cc(CN5CC(c6cccnc6)C5)c(F)cn4)ccc3C2=O)C(=O)N1 (stereo not shown) [Example 190, 3-(5-(5-fluoro-4-((3-(pyridin-3-yl)azetidin-1-yl)methyl)pyridin-2-yl)-1-oxoisoindolin-2-yl) piperidine-2,6-dione] | 76 | 71 | > 10000 | 16 |

Now from value to compound:

| DC50 (Helios) [nM] | Dmax (Helios) [%] | DC50 (Ikaros) [nM] | Dmax (Ikaros) [%] | Structure (SMILES) |
| --- | --- | --- | --- | --- |
| 62 | 77 | > 10000 | 10 | CN(Cc1ccccc1)Cc1ccnc(-c2ccc3c(c2)CN(C2CCC(=O)NC2=O)C3=O)c1 (stereo not shown) [Example 164, 3-[5-(4-{[Benzyl(methyl)amino]methyl}pyridin-2-yl)-1-oxo-2,3-dihydro-1H-isoindol-2-yl]piperidine-2,6-dione] |
| 56 | 95 | > 10000 | 14 | O=C1CCC(N2Cc3cc(-c4cc(CN5CCC5)ccn4)ccc3C2=O)C(=O)N1 (stereo not shown) [Example 165, 3-(5-{4-[(Azetidin-1-yl)methyl]pyridin-2-yl}-1-oxo-2,3-dihydro-1H-isoindol-2-yl) piperidine-2,6-dione] |
| 7860 | 52 | > 10000 | 7 | O=C1CCC(N2Cc3cc(-c4cc(CN5CCOCC5)ccn4)ccc3C2=O)C(=O)N1 (stereo not shown) [Example 166, 3-(5-{4-[(Morpholin-4-yl)methyl]pyridin-2-yl}-1-oxo-2,3-dihydro-1H-isoindol-2-yl) piperidine-2,6-dione] |
| > 10000 | 22 | > 10000 | 2 | CN1CCC(N(C)Cc2ccnc(-c3ccc4c(c3)CN(C3CCC(=O)NC3=O)C4=O)c2)CC1 (stereo not shown) [Example 170, 3-(5-(4-((methyl (1-methylpiperidin-4-yl)amino)methyl)pyridin-2-yl)-1-oxoisoindolin-2-yl)piperidine-2,6-dione] |
| 75 | 90 | > 10000 | 12 | CN(Cc1ccoc1)Cc1ccnc(-c2ccc3c(c2)CN(C2CCC(=O)NC2=O)C3=O)c1 (stereo not shown) [Example 172, 3-(5-(4-(((furan-3-ylmethyl)(methyl)amino)methyl)pyridin-2-yl)-1-oxoisoindolin-2-yl)piperidine-2,6-dione] |
| 73 | 86 | > 10000 | 0 | CN(Cc1ccnc(-c2ccc3c(c2)CN(C2CCC(=O)NC2=O)C3=O)c1)CC1CC1 (stereo not shown) [Example 173, 3-(5-(4-(((cyclopropylmethyl)(methyl)amino)methyl)pyridin-2-yl)-1-oxoisoindolin-2-yl) piperidine-2,6-dione] |
| 5870 | 54 | > 10000 | 20 | CN(Cc1ccnc(-c2ccc3c(c2)CN(C2CCC(=O)NC2=O)C3=O)c1)Cc1cncn1C (stereo not shown) [Example 174, 3-(5-(4-((methyl((1-methyl-1H-imidazol-5-yl)methyl)amino)methyl)pyridin-2-yl)-1-oxoisoindolin-2-yl)piperidine-2,6-dione] |
| 78 | 78 | > 10000 | 7 | CN(Cc1ccnc(-c2ccc3c(c2)CN(C2CCC(=O)NC2=O)C3=O)c1)CC1CCCC1 (stereo not shown) [Example 175, 3-(5-(4-(((cyclopentylmethyl)(methyl)amino)methyl)pyridin-2-yl)-1-oxoisoindolin-2-yl) piperidine-2,6-dione] |
| 1120 | 65 | > 10000 | 30 | CN(Cc1ccnc(-c2ccc3c(c2)CN(C2CCC(=O)NC2=O)C3=O)c1)Cc1nccs1 (stereo not shown) [Example 176, 3-(5-(4-((methyl(thiazol-2-ylmethyl)amino)methyl)pyridin-2-yl)-1-oxoisoindolin-2-yl)piperidine-2,6-dione] |
| 212 | 78 | > 10000 | 4 | CC(C)CN(C)Cc1ccnc(-c2ccc3c(c2)CN(C2CCC(=O)NC2=O)C3=O)c1 (stereo not shown) [Example 179, 3-(5-(4-((isobutyl(methyl)amino)methyl)pyridin-2-yl)-1-oxoisoindolin-2-yl)piperidine-2,6-dione] |
| 352 | 87 | > 10000 | 13 | CC(C)CCN(C)Cc1ccnc(-c2ccc3c(c2)CN(C2CCC(=O)NC2=O)C3=O)c1 (stereo not shown) [Example 180, 3-(5-(4-((isopentyl(methyl)amino)methyl)pyridin-2-yl)-1-oxoisoindolin-2-yl)piperidine-2,6-dione] |
| 499 | 83 | > 10000 | 10 | CC(CO)N(C)Cc1ccnc(-c2ccc3c(c2)CN(C2CCC(=O)NC2=O)C3=O)c1 (stereo not shown) [Example 181, 3-(5-(4-(((1-hydroxypropan-2-yl)(methyl)amino)methyl)pyridin-2-yl)-1-oxoisoindolin-2-yl) piperidine-2,6-dione] |
| 316 | 79 | > 10000 | 23 | CN(Cc1ccnc(-c2ccc3c(c2)CN(C2CCC(=O)NC2=O)C3=O)c1)CC1CCOC1 (stereo not shown) [Example 182, 3-(5-(4-((methyl((tetrahydrofuran-3-yl)methyl)amino)methyl)pyridin-2-yl)-1-oxoisoindolin-2-yl)piperidine-2,6-dione] |
| 6050 | 54 | > 10000 | 14 | CN(CCC(F)(F)F)Cc1ccnc(-c2ccc3c(c2)CN(C2CCC(=O)NC2=O)C3=O)c1 (stereo not shown) [Example 184, 3-(5-(4-((methyl(3,3,3-trifluoropropyl)amino)methyl)pyridin-2-yl)-1-oxoisoindolin-2-yl)piperidine-2,6-dione] |
| 421 | 62 | > 10000 | 2 | CC(CCO)N(C)Cc1ccnc(-c2ccc3c(c2)CN(C2CCC(=O)NC2=O)C3=O)c1 (stereo not shown) [Example 185, 3-(5-(4-(((4-hydroxybutan-2-yl)(methyl)amino)methyl)pyridin-2-yl)-1-oxoisoindolin-2-yl)piperidine-2,6-dione] |
